Laboratory results: publication PMC7848139, “Novel Hybrid CHC from β-carboline and N-Hydroxyacrylamide Overcomes Drug-Resistant Hepatocellular Carcinoma by Promoting Apoptosis, DNA Damage, and Cell Cycle Arrest” (Frontiers in Pharmacology, 2021)

Experiments:
[1] = test system: Bel7402; assay: MTT antiproliferative assay, Bel7402; assay type: cell-based; settings: Homo sapiens, Bel-7402, 72 h, mean ± SD of three experiments, read-out: In vitro antiproliferative activity (IC50) Bel7402
Experimental: (§1) Briefly, appropriate cells (1 × 10^4 cells/mL) were placed into 96-well plates in 100 μL of DMEM medium overnight. Then adding 100 μL of evaluated compounds into individual well for 72 h while 0.1% DMSO aqueous solution was treated as the negative control. After incubation with 30 μl MTT (5 mg/mL) for 4 h in all well, and ELISA plate reader measured absorbance of each well at 570 nm. Then calculating cytotoxicity effect of evaluated compounds through the formula: Cell inhibitory percentage (%) = (1−OD of treatment group/OD of control) × 100%.

[2] = test system: Huh7; assay: MTT antiproliferative assay, Huh7; assay type: cell-based; settings: Homo sapiens, Huh-7, 72 h, mean ± SD of three experiments, read-out: In vitro antiproliferative activity (IC50) Huh7
Experimental: as §1

[3] = test system: Bel7402/5-FU cells; assay: Cell cycle analysis by flow cytometry; assay type: cell-based, human; settings: 2.0 and 5.0 μM, 72 h
Experimental: The collected cells were ﬁxed in 70% ethanol at 4°C overnight, and then incubated with RNase A and using PI (Sigma-Aldrich) to stain. Flow cytometry evaluated the percent of Deoxyribonucleic acid (DNA) on ﬂow cytometer (Beckman Coulter). The ModFit LT (Verity, Software House, Topsham, ME, United States) analyzed distribution of cell cycles.
FIGURE 9 CHC caused G2/M arrest in Bel7402/5-FU cells (A) Bel7402/5-FU cells were treated with CHC at different concentrations (0, 2.0, and 5.0 μM) for 72 h; (B) Quantification of cell distribution per phase. Values (mean ± SD) were obtained from three separate experiments. *p < 0.01 vs. control.

[4] = molecular target: T1, recombinant human HDAC6 (Homo sapiens, UniProt Q9UBN7); assay: HDAC fluorimetric assay, HDAC6; assay type: biochemical
T1 construct: purchased Enzo Life Sciences Inc
T1 sequence (Q9UBN7 1-1215): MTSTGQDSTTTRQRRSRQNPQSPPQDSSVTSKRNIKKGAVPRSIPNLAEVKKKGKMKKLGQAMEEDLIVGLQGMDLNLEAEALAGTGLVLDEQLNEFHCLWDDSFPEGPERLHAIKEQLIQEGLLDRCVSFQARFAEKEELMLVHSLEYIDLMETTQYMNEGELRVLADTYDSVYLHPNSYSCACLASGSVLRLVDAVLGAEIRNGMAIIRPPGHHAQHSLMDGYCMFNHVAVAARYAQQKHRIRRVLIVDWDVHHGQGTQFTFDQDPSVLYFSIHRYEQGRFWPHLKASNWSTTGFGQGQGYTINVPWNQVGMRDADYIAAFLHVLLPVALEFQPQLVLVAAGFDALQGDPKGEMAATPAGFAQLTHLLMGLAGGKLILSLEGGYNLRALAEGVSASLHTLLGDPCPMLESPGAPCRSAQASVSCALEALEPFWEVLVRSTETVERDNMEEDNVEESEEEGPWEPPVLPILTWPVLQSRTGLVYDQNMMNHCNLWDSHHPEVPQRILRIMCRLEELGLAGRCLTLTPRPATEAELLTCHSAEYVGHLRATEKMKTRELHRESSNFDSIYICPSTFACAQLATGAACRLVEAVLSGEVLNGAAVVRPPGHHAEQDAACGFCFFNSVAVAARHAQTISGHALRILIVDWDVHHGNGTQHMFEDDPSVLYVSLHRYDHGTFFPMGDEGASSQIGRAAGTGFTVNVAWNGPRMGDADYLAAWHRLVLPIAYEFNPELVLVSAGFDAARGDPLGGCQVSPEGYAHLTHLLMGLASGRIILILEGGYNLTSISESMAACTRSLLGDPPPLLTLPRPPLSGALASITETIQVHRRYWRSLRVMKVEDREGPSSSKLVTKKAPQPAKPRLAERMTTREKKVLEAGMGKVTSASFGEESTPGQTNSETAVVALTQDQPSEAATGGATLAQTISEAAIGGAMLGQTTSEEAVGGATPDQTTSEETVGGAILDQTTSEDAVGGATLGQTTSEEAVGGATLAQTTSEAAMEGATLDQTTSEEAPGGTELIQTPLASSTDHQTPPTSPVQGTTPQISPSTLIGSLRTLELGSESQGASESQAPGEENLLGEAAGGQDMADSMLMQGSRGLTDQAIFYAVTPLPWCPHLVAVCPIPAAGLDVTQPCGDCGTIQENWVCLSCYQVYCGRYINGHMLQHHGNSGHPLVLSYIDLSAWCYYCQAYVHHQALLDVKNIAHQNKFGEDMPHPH
Experimental: (§2) The assay was conducted according to the HDAC1/3/6/8 assay kit (Enzo Life Sciences Inc.). Each different concentrations of evaluated compounds were, respectively, incubated with each HDAC1/3/6/8 at coupling of corresponding HDAC substrate (Boc-Lys (Ac)-AMC) at 37°C for 60 min. Then stopping the reaction under adding lysine developer.

[5] = molecular target: T2, recombinant human HDAC3 (Homo sapiens, UniProt O15379); assay: HDAC fluorimetric assay, HDAC3; assay type: biochemical; settings: mean ± SD of three experiments
T2 construct: purchased Enzo Life Sciences Inc
Experimental: as §2

[6] = molecular target: T3, recombinant human HDAC8 (Homo sapiens, UniProt Q9BY41); assay: HDAC fluorimetric assay, HDAC8; assay type: biochemical; settings: mean ± SD of three experiments
T3 construct: purchased Enzo Life Sciences Inc
T3 sequence (Q9BY41 1-377): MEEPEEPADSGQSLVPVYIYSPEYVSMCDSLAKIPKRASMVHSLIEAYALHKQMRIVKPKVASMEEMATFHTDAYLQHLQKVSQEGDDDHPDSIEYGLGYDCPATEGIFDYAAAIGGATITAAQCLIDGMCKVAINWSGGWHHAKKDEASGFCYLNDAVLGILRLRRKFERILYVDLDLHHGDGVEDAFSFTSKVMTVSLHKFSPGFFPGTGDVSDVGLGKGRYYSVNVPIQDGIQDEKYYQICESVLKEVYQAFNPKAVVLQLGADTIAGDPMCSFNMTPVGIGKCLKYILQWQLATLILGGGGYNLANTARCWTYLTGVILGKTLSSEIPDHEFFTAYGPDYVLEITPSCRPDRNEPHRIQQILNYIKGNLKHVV
Experimental: as §2

[7] = test system: SUMM-7721, Bel7402, Huh7, HCT116 and Bel7402/5FU cells; assay: MTT antiproliferative assay, range over the five cancer cell lines; assay type: cell-based; settings: Homo sapiens; range over drug-sensitive SUMM-7721, Bel7402, Huh7, HCT116 and drug-resistant Bel7402/5FU cells
Experimental: as §1

T2 sequence (O15379 whole entry): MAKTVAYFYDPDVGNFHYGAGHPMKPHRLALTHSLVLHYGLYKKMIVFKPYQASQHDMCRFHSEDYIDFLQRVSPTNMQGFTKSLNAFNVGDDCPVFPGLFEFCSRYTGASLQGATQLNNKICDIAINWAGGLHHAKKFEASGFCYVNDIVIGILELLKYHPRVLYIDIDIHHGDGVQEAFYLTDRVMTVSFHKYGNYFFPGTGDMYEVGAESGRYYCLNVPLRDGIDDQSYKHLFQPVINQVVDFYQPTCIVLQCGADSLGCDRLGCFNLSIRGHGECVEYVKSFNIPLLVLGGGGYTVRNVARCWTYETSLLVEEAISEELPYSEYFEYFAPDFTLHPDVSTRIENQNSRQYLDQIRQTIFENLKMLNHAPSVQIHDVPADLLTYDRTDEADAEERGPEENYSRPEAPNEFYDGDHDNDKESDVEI
T2 sequence (O75376 395-489 partner limits assumed): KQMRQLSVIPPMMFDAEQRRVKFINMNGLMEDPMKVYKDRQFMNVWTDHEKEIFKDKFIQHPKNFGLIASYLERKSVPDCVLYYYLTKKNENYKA

- IC50 [1]: 1.84 ± 0.23 µM
- IC50 [2]: 2.89 ± 0.32 µM
- IC50 on HDAC6 relative to SAHA ([4]; compared with SAHA): eight-fold lower
- IC50 ([4]; mean ± SD of three experiments): 0.0076 ± 0.001 µM
- fold lower IC50 on HDAC6 than on HDAC3 ([4]; selectivity HDAC6 over HDAC3): 18 fold
- IC50 [5]: 0.134 ± 0.016 µM
- IC50 [6]: > 1 µM
- IC50 [7]: 1.84 to 3.27 µM
SMILES: CN(C)c1ccc(-c2nc(C(=O)NCc3ccc(/C=C/C(=O)NO)cc3)cc3c2[nH]c2ccccc23)cc1 [CHC, (E)-N-(4-(3-(hydroxyamino)-3-oxoprop-1-en-1-yl)benzyl)-1-(4-dimethylaminophenyl)-9H-pyrido [3,4-b]indole-3-carboxamide]
- cell cycle arrest [3]: significantly induced cell cycle arrest at the G2/M phase in a dose-dependent manner
